Several values for one entry are separate records, joined by “and”; a condition that tells them apart may be missing. Identical values can stand only once. Entries after “also recorded” stand apart in the source; their conditions may differ. Like-named read-outs stand apart in the source and are kept apart here.
Biological target: T1, GIRK1/2 (UniProt P48542+P48549)
T1 sequence (P48549 1-501): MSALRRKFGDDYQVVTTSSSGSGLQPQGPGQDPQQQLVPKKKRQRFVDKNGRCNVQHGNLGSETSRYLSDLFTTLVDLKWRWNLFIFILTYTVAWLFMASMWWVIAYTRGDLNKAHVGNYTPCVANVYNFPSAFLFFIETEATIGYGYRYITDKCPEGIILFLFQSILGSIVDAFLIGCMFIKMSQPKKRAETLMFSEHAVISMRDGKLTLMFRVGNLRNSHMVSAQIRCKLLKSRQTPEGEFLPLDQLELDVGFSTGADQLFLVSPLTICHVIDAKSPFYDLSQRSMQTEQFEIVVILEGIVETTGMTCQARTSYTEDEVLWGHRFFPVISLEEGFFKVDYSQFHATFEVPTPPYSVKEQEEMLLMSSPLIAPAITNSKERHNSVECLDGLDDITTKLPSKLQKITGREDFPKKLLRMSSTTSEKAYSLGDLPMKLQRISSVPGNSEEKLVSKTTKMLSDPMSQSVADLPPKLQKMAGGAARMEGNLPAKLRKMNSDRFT
T1 sequence (P48542 1-425): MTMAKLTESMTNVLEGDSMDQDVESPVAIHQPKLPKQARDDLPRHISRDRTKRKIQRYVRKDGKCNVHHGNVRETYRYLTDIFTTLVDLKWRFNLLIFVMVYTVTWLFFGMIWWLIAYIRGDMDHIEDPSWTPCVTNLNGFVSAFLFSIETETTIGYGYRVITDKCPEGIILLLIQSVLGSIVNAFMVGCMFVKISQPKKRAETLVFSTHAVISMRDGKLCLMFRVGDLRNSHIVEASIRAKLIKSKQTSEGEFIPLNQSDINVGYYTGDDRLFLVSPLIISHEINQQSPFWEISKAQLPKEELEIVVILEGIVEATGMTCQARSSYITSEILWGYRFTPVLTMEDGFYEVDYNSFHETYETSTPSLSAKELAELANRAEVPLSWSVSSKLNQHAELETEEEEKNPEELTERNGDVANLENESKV
Assay: two-electrode voltage clamp (TEVC) in Xenopus oocytes expressing GIRK1/2 wild-type
Format: cell-based, human GIRK1, mouse GIRK2
Parameters: expressed in transfected cells; host or cells: Xenopus laevis oocytes (cRNA injection)
Settings: for selectivity for GIRK1/2 over GIRK1/4 (in words) / EC50: TEVC; for selectivity for GIRK1/2 over GIRK1/4 (in words): GIRK1/2 versus GIRK1/4; for EC50: Xenopus oocytes, GIRK1/2 wild-type; for EMAX at GIRK1/2: current normalized to basal current
Description: Molecular biology: For Xenopus oocyte expression, human GIRK1 and human GIRK4 cDNAs were subcloned into pGEMHE. For mammalian expression, human GIRK1 and human GIRK4 cDNAs were subcloned into pcDNA3 and pcDNA3.1/V5-His B, respectively (Invitrogen). Mouse GIRK2 cDNA was subcloned in the dual-function vector, pXoom. Point mutations were introduced using a standard Pfu-based mutagenesis technique according to the QuikChange protocol (Agilent). Mutations were verified by sequencing.
Xenopus laevis oocyte expression: Plasmid DNAs of GIRK channel subunits were linearized prior to in vitro transcription. Capped RNAs were transcribed using mMESSAGE mMACHINE T7 Transcription Kit (Thermo Fisher Scientific). Xenopus oocytes were surgically extracted, dissociated and defolliculated by collagenase treatment, and microinjected with 50 nl of a water solution containing 1 ng of each GIRK subunit RNA. For TEVC experiments, oocytes were kept 2 days at 17° C. before recording, while for NPo experiments oocytes were incubated for up to 4 days at 17° C.
Xenopus laevis oocyte expression: All cDNA constructs in the pGEMHE vector were linearized using the NheI restriction enzyme, whereas those in the pXoom vector were linearized using the XhoI restriction enzyme. Linearized cDNAs were in vitro-transcribed using the mMessage mMachine® kit (Ambion) kit. Complementary RNA (cRNA) concentrations were quantified by optical density. Xenopus oocytes were surgically extracted, dissociated, and defolliculated by collagenase treatment and microinjected with 50 nl of the desired cRNAs diluted in RNAase-free water. The use of Xenopus laevis frogs for this study was approved by the Institutional Animal Care and Use Committee (IACUC) at Northeastern University. All constructs used in this study were injected to achieve between 1-2 ng per oocyte depending on the channel. Oocytes were incubated for 2 days at 18° C.
Electrophysiology of oocytes: Whole-oocyte currents were measured by conventional two-electrode voltage clamp (TEVC) with a GeneClamp 500 amplifier (Axon Instruments). […] Barium-sensitive currents were normalized to average basal current in the vehicle solutions. The HK solution contained the following: 96 mM KCl, 1 mM NaCl, 1 mM MgCl2, 5 mM KOH/HEPES, pH 7.4. The barium solution consisted of HK+10 mM BaCl2. Five to ten oocytes from the same batch (same frog) were recorded for each group, and the experiments were repeated in at least four batches. Data acquisition and analysis were carried out using pClamp9 (Molecular Devices) and OriginPro (Microcal) software.

[1] = ML297 considered 100%, read-out: EMAX at GIRK1/2, % relative to ML297

GAT1508-induced potassium current, GIRK1/2 (in words) (10 μM, 10 mM K+, holding potential −100 mV) | GAT1508-induced thallium current, GIRK1/2 (in words) (10 μM, 10 mM thallium, holding potential −100 mV) | Emax (GAT1508 at wild-type GIRK1/2 considered 100%, read-out: EMAX, % of the control GIRK1/2) [%] | Emax [1] [%] | EC50 [nM] | EMAX at GIRK1/2 | potency/efficacy compared to GAT1508 (in words) (concentration-response, FIGS. 34A-34I) | compound-induced current normalized to the basal current, GIRK1+GIRK2 (10 μM, High Potassium (HK) solution, FIG. 31) | EMAX at GIRK1/2, % relative to ML297 (ML297 considered 100%) [%] | SMILES | selectivity for GIRK1/2 over GIRK1/4 (in words)
significantly increased currents | induced current increases | 100 | 76 | 370 ± 110 | 2.42±0.07 and 2.36±0.23 | – | – | – | Cc1cc(NC(=O)Nc2ccc(Br)s2)n(-c2ccccc2)n1 [GAT1508, 1-(5-bromothiophen-2-yl)-3-(3-methyl-1-phenyl-1H-pyrazol-5-yl)urea] | most selective GIRK1/2 activators relative to GIRK1/4; also recorded: could induce the current increase only in the brain channel
– | – | – | 73 | 1220 ± 80 | 2.36±0.06 | lower potency than GAT1508 | – | – | Cc1cc(NC(=O)Nc2ccc(C)s2)n(-c2ccccc2)n1 [GAT1521, 1-(3-methyl-1-phenyl-1H-pyrazol-5-yl)-3-(5-methylthiophen-2-yl)urea] | most selective GIRK1/2 activators relative to GIRK1/4; also recorded: retained the specificity for brain over cardiac currents; also recorded: could induce the current increase only in the brain channel
– | – | – | – | 340 ± 120 | 2.87±0.11 | – | ~2.5 | 100 | Cc1cc(NC(=O)Nc2ccc(F)c(F)c2)n(-c2ccccc2)n1 [ML297, reference compound] | stimulated both brain and cardiac heteromeric channels

Reference: US12351574B2, “Selective ligands for modulation of GIRK channels” (Northeastern University, priority 2018, dated 2025)
